Reference: the NIST ThermoML archive (doi:10.1021/acs.jced.8b00554)

Assay: xn = mol fraction of the nth substance listed
Conditions: Liquid, Vibrating tube method

CCCCCCCCC [nonane] + CCCO
mass density [kg/m3]
Conditions	353.15 K	363.15 K
100 kPa, x2 = 0.1231	–	655.98
100 kPa, x2 = 0.2315	–	657.04
100 kPa, x2 = 0.3229	–	658.57
100 kPa, x2 = 0.4272	–	662.45
100 kPa, x2 = 0.7021	–	683
100 kPa, x2 = 0.8941	–	710.52
1000 kPa, x2 = 0.1231	–	657.23
1000 kPa, x2 = 0.8941	–	710.94
1010 kPa, x2 = 0.2315	–	659.34
1010 kPa, x2 = 0.4272	–	664.09
1010 kPa, x2 = 0.7021	–	683.53
1020 kPa, x2 = 0.3229	–	660.57
2010 kPa, x2 = 0.1231	–	658.47
2010 kPa, x2 = 0.2315	–	660.57
2010 kPa, x2 = 0.3229	–	661.82
2010 kPa, x2 = 0.4272	–	665.32
2010 kPa, x2 = 0.7021	–	684.79
2010 kPa, x2 = 0.8941	–	712.1
3010 kPa, x2 = 0.2315	–	661.79
3010 kPa, x2 = 0.3229	–	663.05
3010 kPa, x2 = 0.7021	–	686.04
3010 kPa, x2 = 0.8941	–	713.33
3020 kPa, x2 = 0.1231	–	659.67
3020 kPa, x2 = 0.4272	–	666.57
4010 kPa, x2 = 0.1231	–	660.89
4010 kPa, x2 = 0.3229	–	664.28
4010 kPa, x2 = 0.4272	–	667.83
4010 kPa, x2 = 0.7021	–	687.34
4010 kPa, x2 = 0.8941	–	714.55
4020 kPa, x2 = 0.2315	–	663.04
5000 kPa, x2 = 0.4272	–	669.09
5000 kPa, x2 = 0.7021	–	688.61
5010 kPa, x2 = 0.1231	–	662.09
5010 kPa, x2 = 0.2315	–	664.23
5010 kPa, x2 = 0.3229	–	665.52
5010 kPa, x2 = 0.8941	–	715.78
6000 kPa, x2 = 0.7021	–	689.86
6010 kPa, x2 = 0.2315	–	665.41
6010 kPa, x2 = 0.4272	–	670.36
6010 kPa, x2 = 0.8941	–	717.03
6020 kPa, x2 = 0.1231	–	663.3
6020 kPa, x2 = 0.3229	–	666.76
7000 kPa, x2 = 0.3229	–	667.99
7000 kPa, x2 = 0.7021	–	691.15
7010 kPa, x2 = 0.1231	–	664.48
7010 kPa, x2 = 0.2315	–	666.62
7020 kPa, x2 = 0.4272	–	671.62
7020 kPa, x2 = 0.8941	–	718.27
8000 kPa, x2 = 0.3229	–	669.23
8000 kPa, x2 = 0.7021	–	692.44
8010 kPa, x2 = 0.8941	–	719.48
8020 kPa, x2 = 0.1231	–	665.72
8020 kPa, x2 = 0.2315	–	667.87
8020 kPa, x2 = 0.4272	–	672.88
9000 kPa, x2 = 0.2315	–	669.09
9000 kPa, x2 = 0.3229	–	670.48
9010 kPa, x2 = 0.7021	–	693.71
9010 kPa, x2 = 0.8941	–	720.71
9020 kPa, x2 = 0.1231	–	666.89
9020 kPa, x2 = 0.4272	–	674.14
10010 kPa, x2 = 0.1231	–	668.07
10010 kPa, x2 = 0.2315	–	670.27
10010 kPa, x2 = 0.3229	–	671.75
10010 kPa, x2 = 0.4272	–	675.41
10010 kPa, x2 = 0.7021	–	694.96
10010 kPa, x2 = 0.8941	–	721.93
11000 kPa, x2 = 0.1231	679.16	–
11000 kPa, x2 = 0.4272	688.79	–
11010 kPa, x2 = 0.1231	–	669.29
11010 kPa, x2 = 0.2315	682.07	671.48
11010 kPa, x2 = 0.3229	–	672.98
11010 kPa, x2 = 0.4272	–	676.62
11010 kPa, x2 = 0.7021	709.06	–
11010 kPa, x2 = 0.8941	735.52	723.15
11020 kPa, x2 = 0.3229	684.47	–
11020 kPa, x2 = 0.7021	–	696.2
12000 kPa, x2 = 0.3229	685.59	674.18
12000 kPa, x2 = 0.7021	710.18	697.42
12010 kPa, x2 = 0.1231	680.24	670.44
12010 kPa, x2 = 0.2315	683.2	672.7
12010 kPa, x2 = 0.4272	689.92	677.87
12010 kPa, x2 = 0.8941	736.6	724.32
13000 kPa, x2 = 0.4272	–	679.08
13000 kPa, x2 = 0.8941	–	725.44
13010 kPa, x2 = 0.1231	681.32	671.61
13010 kPa, x2 = 0.3229	–	675.41
13010 kPa, x2 = 0.4272	691.03	–
13010 kPa, x2 = 0.7021	711.31	698.65
13010 kPa, x2 = 0.8941	737.63	–
13020 kPa, x2 = 0.2315	684.28	673.89
13020 kPa, x2 = 0.3229	686.69	–
14000 kPa, x2 = 0.3229	687.76	676.57
14000 kPa, x2 = 0.4272	692.13	–
14000 kPa, x2 = 0.8941	738.72	–
14010 kPa, x2 = 0.1231	682.37	–
14010 kPa, x2 = 0.2315	685.35	–
14010 kPa, x2 = 0.4272	–	680.27
14010 kPa, x2 = 0.7021	–	699.83
14010 kPa, x2 = 0.8941	–	726.63
14020 kPa, x2 = 0.1231	–	672.74
14020 kPa, x2 = 0.2315	–	675.04
14020 kPa, x2 = 0.7021	712.38	–
15000 kPa, x2 = 0.2315	–	676.17
15000 kPa, x2 = 0.4272	693.19	–
15010 kPa, x2 = 0.1231	683.4	673.85
15010 kPa, x2 = 0.3229	688.83	677.73
15010 kPa, x2 = 0.4272	–	681.42
15010 kPa, x2 = 0.7021	713.45	–
15010 kPa, x2 = 0.8941	–	727.76
15020 kPa, x2 = 0.2315	686.39	–
15020 kPa, x2 = 0.7021	–	700.99
15020 kPa, x2 = 0.8941	739.75	–
16000 kPa, x2 = 0.2315	687.43	677.27
16000 kPa, x2 = 0.8941	740.76	–
16010 kPa, x2 = 0.1231	684.41	674.91
16010 kPa, x2 = 0.3229	–	678.86
16010 kPa, x2 = 0.4272	694.24	682.56
16010 kPa, x2 = 0.7021	714.52	–
16020 kPa, x2 = 0.3229	689.88	–
16020 kPa, x2 = 0.7021	–	702.15
16020 kPa, x2 = 0.8941	–	728.86
17000 kPa, x2 = 0.1231	–	676
17000 kPa, x2 = 0.8941	741.78	729.95
17010 kPa, x2 = 0.1231	685.42	–
17010 kPa, x2 = 0.2315	–	678.41
17010 kPa, x2 = 0.3229	690.92	–
17010 kPa, x2 = 0.4272	695.25	683.64
17010 kPa, x2 = 0.7021	715.56	–
17020 kPa, x2 = 0.2315	688.48	–
17020 kPa, x2 = 0.3229	–	679.98
17020 kPa, x2 = 0.7021	–	703.28
18000 kPa, x2 = 0.3229	691.91	–
18000 kPa, x2 = 0.7021	716.55	–
18010 kPa, x2 = 0.1231	686.41	677.05
18010 kPa, x2 = 0.2315	689.45	679.45
18010 kPa, x2 = 0.4272	–	684.75
18010 kPa, x2 = 0.7021	–	704.37
18010 kPa, x2 = 0.8941	742.76	–
18020 kPa, x2 = 0.3229	–	681.03
18020 kPa, x2 = 0.4272	696.27	–
18020 kPa, x2 = 0.8941	–	731.02
19000 kPa, x2 = 0.2315	–	680.43
19000 kPa, x2 = 0.3229	692.9	–
19000 kPa, x2 = 0.4272	697.25	–
19000 kPa, x2 = 0.7021	–	705.41
19010 kPa, x2 = 0.1231	687.34	678.04
19010 kPa, x2 = 0.2315	690.38	–
19010 kPa, x2 = 0.3229	–	682.1
19010 kPa, x2 = 0.4272	–	685.8
19010 kPa, x2 = 0.8941	743.72	732.06
19020 kPa, x2 = 0.7021	717.54	–
20000 kPa, x2 = 0.1231	688.24	–
20000 kPa, x2 = 0.2315	691.33	–
20000 kPa, x2 = 0.3229	693.81	–
20010 kPa, x2 = 0.1231	–	679
20010 kPa, x2 = 0.2315	–	681.42
20010 kPa, x2 = 0.3229	–	683.05
20010 kPa, x2 = 0.4272	698.23	686.85
20010 kPa, x2 = 0.7021	718.51	–
20020 kPa, x2 = 0.7021	–	706.48
20020 kPa, x2 = 0.8941	744.66	733.04
